The values below are quoted from earlier work in PMC13179673 (European journal of pharmaceutical sciences : official …, 2025).

For data set [1] the following is noted: biological pH at 37°C.
For another data set, the system named is OHT rabbit eyes. On the set-up: method as in Behar-Cohen et al., 1996. Particulars: eyedrop, ref Behar-Cohen et al., 1996.

Regarding `[NH-]c1c[n+](N2CCOCC2)no1` [SIN-1, linsidomine], the half-life in data set [1] is on record as less than 1 h. Moreover, in the data set with OHT rabbit eyes, the “duration of IOP-lowering effect” value is given as no more than 3 h.

Usually half-life stands for the time needed for the level to fall by half in the phase considered.
